We go through 14 compounds from patent US20250170266A1 (ZYMEWORKS BC INC., priority 2022, published 2025).

Type in all cases: cell-based
One assay addresses T1, hTLR7 (Homo sapiens, UniProt Q9NYK1).
T1 construct: host or cells: HEK-Blue hTLR7 reporter cells (HEK293-derived, own knowledge)
T1 sequence (Q9NYK1 27-1049): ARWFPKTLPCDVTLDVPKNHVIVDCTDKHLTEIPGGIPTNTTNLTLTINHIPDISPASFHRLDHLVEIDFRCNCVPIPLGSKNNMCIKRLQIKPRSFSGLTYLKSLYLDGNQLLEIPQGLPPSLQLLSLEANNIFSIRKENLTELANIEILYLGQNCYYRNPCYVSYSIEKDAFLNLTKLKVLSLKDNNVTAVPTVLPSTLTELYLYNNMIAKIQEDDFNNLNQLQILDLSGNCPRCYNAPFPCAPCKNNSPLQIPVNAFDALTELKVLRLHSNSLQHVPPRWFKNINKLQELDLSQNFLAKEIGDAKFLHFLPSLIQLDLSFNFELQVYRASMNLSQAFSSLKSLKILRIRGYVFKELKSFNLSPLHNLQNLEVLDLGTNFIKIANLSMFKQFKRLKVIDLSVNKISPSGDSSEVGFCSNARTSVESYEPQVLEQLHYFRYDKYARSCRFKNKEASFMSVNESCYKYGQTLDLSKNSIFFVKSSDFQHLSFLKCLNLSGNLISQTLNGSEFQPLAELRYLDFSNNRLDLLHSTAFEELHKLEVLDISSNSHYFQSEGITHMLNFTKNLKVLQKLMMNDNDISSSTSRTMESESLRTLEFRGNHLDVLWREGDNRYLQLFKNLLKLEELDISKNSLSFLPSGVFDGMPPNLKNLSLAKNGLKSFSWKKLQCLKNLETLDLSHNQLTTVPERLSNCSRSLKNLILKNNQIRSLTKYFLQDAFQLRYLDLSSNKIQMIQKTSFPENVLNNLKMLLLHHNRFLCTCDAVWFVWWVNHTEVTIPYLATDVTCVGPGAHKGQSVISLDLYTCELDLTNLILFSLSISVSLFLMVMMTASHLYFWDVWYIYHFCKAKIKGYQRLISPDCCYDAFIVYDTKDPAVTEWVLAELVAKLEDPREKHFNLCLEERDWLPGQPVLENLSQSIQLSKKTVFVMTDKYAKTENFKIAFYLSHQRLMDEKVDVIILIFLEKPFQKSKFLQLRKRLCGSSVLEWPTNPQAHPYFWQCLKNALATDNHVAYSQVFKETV
Nature of the assay: Reporter Gene Assay (RGA), HEK-Blue hTLR7 reporter cells, SEAP readout. The following applies: overnight incubation, SEAP absorbance 620 nm. The procedure, abridged: (§1)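 HEK-Blue reporter cells expressing human or mouse TLR7 (1.5×10^4 cells) were treated with an 11-point, 4-fold compound titration from 15 pM in HEK-Blue Detection medium. Incubation was overnight at 37° C with 5% CO2. Secreted embryonic alkaline phosphatase was read as absorbance at 620 nm.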

For a further assay, the target named is T2, mTLR7 (Mus musculus, UniProt P58681).
T2 construct: host or cells: HEK-Blue mTLR7 reporter cells (HEK293-derived, own knowledge)
T2 sequence (P58681 27-1050): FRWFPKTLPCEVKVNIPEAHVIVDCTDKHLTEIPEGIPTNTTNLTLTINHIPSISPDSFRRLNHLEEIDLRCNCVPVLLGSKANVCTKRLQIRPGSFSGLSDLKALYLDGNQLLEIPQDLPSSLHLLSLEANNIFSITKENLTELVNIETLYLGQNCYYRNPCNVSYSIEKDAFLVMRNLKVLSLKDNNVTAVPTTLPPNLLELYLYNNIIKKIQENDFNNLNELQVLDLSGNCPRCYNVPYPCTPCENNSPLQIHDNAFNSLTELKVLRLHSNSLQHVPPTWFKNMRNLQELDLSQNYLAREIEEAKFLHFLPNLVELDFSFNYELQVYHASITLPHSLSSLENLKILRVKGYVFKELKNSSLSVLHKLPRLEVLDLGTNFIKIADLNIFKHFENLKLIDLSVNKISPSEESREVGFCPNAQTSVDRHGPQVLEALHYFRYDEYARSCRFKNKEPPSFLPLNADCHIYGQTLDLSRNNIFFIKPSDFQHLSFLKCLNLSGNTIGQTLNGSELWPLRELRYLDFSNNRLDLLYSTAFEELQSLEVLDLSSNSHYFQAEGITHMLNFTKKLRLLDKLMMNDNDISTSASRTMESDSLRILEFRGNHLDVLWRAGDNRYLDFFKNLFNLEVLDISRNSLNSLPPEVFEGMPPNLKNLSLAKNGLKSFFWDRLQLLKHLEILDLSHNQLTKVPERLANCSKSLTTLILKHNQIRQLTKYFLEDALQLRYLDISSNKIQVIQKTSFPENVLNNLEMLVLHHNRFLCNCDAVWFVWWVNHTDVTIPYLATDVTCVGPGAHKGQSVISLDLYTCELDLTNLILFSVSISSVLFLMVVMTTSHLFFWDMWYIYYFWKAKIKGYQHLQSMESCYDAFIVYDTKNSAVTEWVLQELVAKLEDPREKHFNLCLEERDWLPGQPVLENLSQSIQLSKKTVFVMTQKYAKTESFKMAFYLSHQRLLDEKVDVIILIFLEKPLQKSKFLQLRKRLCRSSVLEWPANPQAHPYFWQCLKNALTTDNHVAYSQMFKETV
Nature of the assay: Reporter Gene Assay (RGA), HEK-Blue mTLR7 reporter cells, SEAP readout. Particulars: overnight incubation, SEAP absorbance 620 nm. An outline of the steps:
as §1
For orientation: A reporter such as luciferase makes a cellular process visible.

Assay [1] deals with Human peripheral blood mononuclear cells (PBMCs). The assay is described as follows: Human PBMC Assay, cytokine release (HTRF). The following applies: 24 hours; for EC50: PBMC. An outline of the steps: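 Cryopreserved human PBMCs, rested overnight with 10 ng/ml hIL3, then 300,000 cells/well treated 24 h at 37° C with compound (4-fold, 11-point titration from 15 μM) in RPMI+10% FBS. Supernatant hIL6, hTNFα and hIFNα measured by HTRF; growth medium as negative control.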

A further assay has as its system Mouse splenocytes. Nature of the assay: Mouse Splenocyte Assay, cytokine release (HTRF). Particulars: Splenocyte, 24 hours, mIL6 in supernatant, read-out: Splenocyte IL6 EC50. The procedure, abridged:
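Splenocytes from female balb/c nude mice, thawed, 100,000 per well in RPMI + 10% FBS. Exposed for 24 h at 37 °C to a 4-fold 11-point compound titration from 15 μM; supernatant mIL6 and mTNFα measured by HTRF.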
Background: In TR-FRET formats the signal depends on donor and acceptor labels being close together.

Where [2] appears, read: hIFNα in supernatant, EC50 values approximated and divided into groups, read-out: PBMC IFNa EC50.
[3] abbreviates: hIL6 in supernatant, read-out: PBMC IL6 EC50.

Where two headings read alike, the source gives them in different places.

For orientation: EC50 means the concentration that produces a half-maximal response. Regarding `CCCCOc1nc(N)c2nc(O)n(Cc3ccc(CNC4CCC4)cc3OC)c2n1` [Compound 164, 6-amino-2-butoxy-9-(4-((cyclobutylamino)methyl)-2-methoxybenzyl)-9H-purin-8-ol], the EC50 at hTLR7 is below 0.1 nM; at mTLR7 it was below 0.1 nM; in assay [1] (setting [2]) it was below 0.1 nM; in assay [1] (setting [3]), 2540 nM; in the assay with Mouse splenocytes, 0.3 nM.

As to `CCCCOc1nc(N)c2nc(O)n(Cc3ccc(CN4CCNCC4)cc3)c2n1` [Compound 166, 6-amino-2-butoxy-9-(4-(piperazin-1-ylmethyl)benzyl)-9H-purin-8-ol], the EC50 on hTLR7 is below 0.1 nM; at mTLR7, 11 nM; in assay [1] (setting [2]) it was above 10 nM; in assay [1] (setting [3]) it was 1570 nM; in the assay with Mouse splenocytes, 150 nM.

Consider `CCCCOc1nc(N)c2nc(O)n(Cc3ccc(N4CCNCC4)nc3)c2n1` [Compound 167, 6-amino-2-butoxy-9-((6-(piperazin-1-yl)pyridin-3-yl)methyl)-9H-purin-8-ol], for which the 50% effective concentration (EC50) at hTLR7 is 0.5 nM; on mTLR7, 5.3 nM; in assay [1] (setting [2]) it was above 10 nM; in assay [1] (setting [3]), 2030 nM; with Mouse splenocytes it was 18 nM.

As to `CCCCOc1nc(N)c2nc(O)n(Cc3ccc(N4CCC5(CCNCC5)CC4)nc3)c2n1` [Compound 168, 9-((6-(3,9-diazaspiro[5.5]undecan-3-yl)pyridin-3-yl)methyl)-6-amino-2-butoxy-9H-purin-8-ol], the EC50 at hTLR7 is 0.1 nM; at mTLR7, 5.7 nM; in assay [1] (setting [2]), above 10 nM; in the assay with Mouse splenocytes, 35.7 nM. The “PBMC IL6 EC50 (nM)” value in assay [1] (hIL6 in supernatant) was “inactive”.

As for `CCCCOc1nc(N)c2nc(O)n(Cc3ccc(N4CCNCC4)cc3OC)c2n1` [Compound 169, 6-amino-2-butoxy-9-(2-methoxy-4-(piperazin-1-yl)benzyl)-9H-purin-8-ol], the EC50 is 1.1 nM on hTLR7, 3 nM at mTLR7, 1 to 10 nM in assay [1] (setting [2]) and 23.2 nM in the assay on Mouse splenocytes.

Consider `CCCCOc1nc(N)c2nc(O)n(Cc3ccc(N4CCC(N)CC4)cc3OC)c2n1` [Compound 170, 6-amino-9-(4-(4-aminopiperidin-1-yl)-2-methoxybenzyl)-2-butoxy-9H-purin-8-ol], for which the EC50 on hTLR7 is 1 nM; at mTLR7, 2 nM; in assay [1] (setting [2]) it was above 10 nM; in assay [1] (setting [3]), 1470 nM; in the assay on Mouse splenocytes it was 51.7 nM.

With `CCCCOc1nc(N)c2nc(O)n(Cc3ccc(N4CCC5(CCNCC5)CC4)cc3OC)c2n1` [Compound 171, 6-amino-2-butoxy-9-(2-methoxy-4-(3,9-diazaspiro[5.5]undecan-3-yl)benzyl)-9H-purin-8-ol], the concentration for a half-maximal effect (EC50) at hTLR7 was below 0.1 nM; at mTLR7, 1.1 nM; in assay [1] (setting [2]), above 10 nM; in assay [1] (setting [3]), 1550 nM; in the assay with Mouse splenocytes, 8.9 nM.

Regarding `CCCCOc1nc(N)c2nc(O)n(Cc3ccc(CCCN4CCC(N)CC4)cc3OC)c2n1` [Compound 172, 6-amino-9-(4-(3-(4-aminopiperidin-1-yl)propyl)-2-methoxybenzyl)-2-butoxy-9H-purin-8-ol], the concentration giving a half-maximal response (EC50) was below 0.1 nM at hTLR7, below 0.1 nM on mTLR7, above 10 nM in assay [1] (setting [2]) and 2.1 nM with Mouse splenocytes.

Regarding `CCCCOc1nc(N)c2nc(O)n(Cc3ccc(CCCN4CCNCC4)cc3OC)c2n1` [Compound 173, 6-amino-2-butoxy-9-(2-methoxy-4-(3-(piperazin-1-yl)propyl)benzyl)-9H-purin-8-ol], the concentration giving a half-maximal response (EC50) is 0.2 nM on hTLR7; 0.6 nM at mTLR7; 1 to 10 nM in assay [1] (setting [2]); 1800 nM in assay [1] (setting [3]); 5 nM with Mouse splenocytes.

Take `CCCCOc1nc(N)c2nc(O)n(Cc3ccc(CCCN4CCC(CCN)CC4)cc3OC)c2n1` [Compound 175, 6-amino-9-(4-(3-(4-(2-aminoethyl)piperidin-1-yl)propyl)-2-methoxybenzyl)-2-butoxy-9H-purin-8-ol]: the EC50 is below 0.1 nM on hTLR7, below 0.1 nM on mTLR7, above 10 nM in assay [1] (setting [2]) and 6 nM with Mouse splenocytes. In assay [1] (hIL6 in supernatant), the “PBMC IL6 EC50 (nM)” value is “inactive”.

`CCCCOc1nc(N)c2nc(O)n(Cc3ccc(CCCNC4CCNCC4)cc3OC)c2n1` [Compound 176, 6-amino-2-butoxy-9-(2-methoxy-4-(3-(piperidin-4-ylamino)propyl)benzyl)-9H-purin-8-ol]: the concentration giving a half-maximal response (EC50) was below 0.1 nM on hTLR7, below 0.1 nM at mTLR7, above 10 nM in assay [1] (setting [2]) and 5.8 nM with Mouse splenocytes. The “PBMC IL6 EC50 (nM)” value in assay [1] (hIL6 in supernatant) was “inactive”.

Take `CCCCOc1nc(N)c2nc(O)n(Cc3ccc(CCN4CCNCC4)cc3OC)c2n1` [Compound 180, 6-amino-2-butoxy-9-(2-methoxy-4-(2-(piperazin-1-yl)ethyl)benzyl)-9H-purin-8-ol]: the concentration for a half-maximal effect (EC50) at hTLR7 is 34 nM; on mTLR7 it was 79.9 nM; in assay [1] (setting [2]), above 10 nM; with Mouse splenocytes, 873 nM. The “PBMC IL6 EC50 (nM)” value in assay [1] (hIL6 in supernatant) is “inactive”.

For `CCCC(CO)Oc1nc(N)c2nc(O)n(Cc3ccc(CN)cc3)c2n1` (centres unmarked) [Compound 182, 6-amino-9-(4-(aminomethyl)benzyl)-2-((1-hydroxypentan-2-yl)oxy)-9H-purin-8-ol], the concentration for a half-maximal effect (EC50) was 2.1 nM at hTLR7; 5.9 nM on mTLR7; above 10 nM in assay [1] (setting [2]); 5220 nM in assay [1] (setting [3]); 2.4 nM with Mouse splenocytes.

Turning to `CCCCCNc1nc(N)c2nc(O)n(Cc3ccc(CN)cc3)c2n1` [Compound 183, 6-amino-9-(4-(aminomethyl)benzyl)-2-(pentylamino)-9H-purin-8-ol], the EC50 is 145 nM on hTLR7; 60.6 nM on mTLR7; above 10 nM in assay [1] (setting [2]); 291 nM in assay [1] (setting [3]); 235 nM in the assay with Mouse splenocytes.
